The numbers were not newly measured in publication PMC3014826 (The Biochemical journal, 2009), which cites them from elsewhere.

For the data set, the system named is A6 TCR. To be noted: ITC, 37 °C; ref Armstrong et al. (2008). (In general: In ITC the heat of successive injections is recorded.)

Turning to HTLV-1 Tax11-19 peptide [Native Tax], the “ΔG°” value is -8.59 ± 0.04 kcal/mol, the “ΔH°” value is -7.1 ± 0.1 kcal/mol and the “ΔS°” value is reported as 4.7 ± 0.4 cal/mol/K.
